Results reported in patent US20090214529A9, “KINESIN INHIBITORS” (TaiGen Biotechnology Co., Ltd., priority 2007, published 2009).

Test system: tumor cell
Assay: Cytotoxicity assay (MTS)
Assay type: cell-based
Conditions: 72 h; incubation for three days; read-out: IC50, tumor cell growth inhibition (MTS)
Procedure: The efficacy of a test compound in inhibiting tumor cell growth was analyzed using a MTS assay. The MTS assay is a calorimetric method for the determination of viable cells in proliferation by using a tetrazolium compound (3-(4,5-dimethylthiazol-2-yl)-5-(3-[…])-2-(4-sulfophenyl)-2H-tetrazolium, inner salt; MTS) and an electron-coupling agent (phenazine methosulfate; PMS). The MTS reagent is converted by dehydrogenase enzymes in metabolically active cells into a formazan that is soluble in a tissue culture medium.
In this assay, tumor cell suspensions (30 μl/well) were seeded into 384-well flat-bottomed tissue culture plates at an appropriate density overnight. A fresh medium (3 μl/well) containing varying concentrations of a test compound or vehicle was added to the culture followed by incubation for three days. At the end of the incubation, all plates were processed simultaneously as follows: The culture medium was aspirated, a MTS cell proliferation assay (Promega) solution (30 μl/well) was added, and the plates were incubated at 37° C. for about 2 hours. Absorbance (a parameter proportional to the cell mass) was measured at 490 nm using a Multiskan (Thermo Electron Corporation, Waltham, Mass.). Inhibition effects were expressed as corrected T/C values for each test compound according to the following equation:
T/C=(T−Blank)/(C−Blank)×100(%),
where T is the mean absorbance of the treated cells, C is the mean absorbance of the controls, and Blank is the mean absorbance of the cell free well.

| Compound | IC50 [µM] |
| --- | --- |
| Cc1ccc(C(=O)N(NCCN)C(c2nc3c(oc4ccccc43)c(=O)n2Cc2ccccc2)C(C)C)cc1 (centres unmarked) [Compound 26] | < 30 |
| CC(C)C(c1nc2c(oc3ccc(F)cc32)c(=O)n1Cc1ccc(Cl)o1)N(CCN)C(=O)c1ccc(Br)cc1 (centres unmarked) [Compound 170] | < 30 |
| Cc1ccc(C(=O)N(CCCN)C(c2nc3c([nH]c4ccc(Br)cc43)c(=O)n2Cc2ccccc2)C(C)C)cc1 (centres unmarked) [Compound 157] | < 30 |
| Cc1ccc(C(=O)N(CCCN)C(c2nc3c(I)c4ccccc4cc3c(=O)n2Cc2ccccc2)C(C)C)cc1 (centres unmarked) [Compound 9] | < 30 |
| Cc1ccc(C(=O)N(CCCN)C(c2nc3c(oc4ccc(F)cc43)c(=O)n2Cc2cc(C)cs2)C(C)C)cc1 (centres unmarked) [Compound 85] | < 30 |
| Cc1ccc(C(=O)N(CCN)[C@@H](c2nc3c(oc4ccc(F)cc43)c(=O)n2Cc2cccs2)C2CC2)cc1 [Compound 226] | < 30 |
| Cc1ccc(C(=O)N(CCN)[C@@H](c2nc3c(oc4ccc(F)cc43)c(=O)n2Cc2ccc(Br)o2)C2CC2)cc1 [Compound 223] | < 30 |
| Cc1ccc(C(=O)N(CCN)[C@@H](c2nc3c(oc4ccc(F)cc43)c(=O)n2Cc2cccs2)C(C)C)cc1F [Compound 200] | < 30 |
| CC(C)[C@H](c1nc2c(oc3ccc(F)cc32)c(=O)n1Cc1ccccc1)N(CCN)C(=O)c1ccc(Cl)cc1 [Compound 193] | < 30 |
| Cc1ccc(C(=O)N(CCN)C(c2nc3c(oc4ccccc43)c(=O)n2Cc2ccc(Cl)s2)C(C)C)cc1 (centres unmarked) [Compound 160] | < 30 |
| Cc1ccc(C(=O)N(CCN)[C@@H](c2nc3c(oc4ccc(F)cc43)c(=O)n2Cc2cc(Br)co2)C(C)C)cc1 [Compound 217] | < 30 |
| Cc1ccc(C(=O)N(CCN)C(c2nc3c(oc4ccc(F)cc43)c(=O)n2Cc2ccco2)C(C)C)cc1 (centres unmarked) [Compound 127] | < 30 |
| Cc1ccc(C(=O)N(CCN)[C@@H](c2nc3c(oc4ccc(F)cc43)c(=O)n2Cc2ccc(Br)s2)C(C)C)cc1 [Compound 183] | < 30 |
| Cc1ccc(C(=O)N(CCCN)C(c2nc3c(oc4ccc(F)cc43)c(=O)n2Cc2cccc(F)c2)C(C)C)cc1 (centres unmarked) [Compound 80] | < 30 |
| Cc1ccc(C(=O)N(CCN)C(c2nc3c(oc4ccc(F)cc43)c(=O)n2Cc2ccc(Cl)o2)C(C)C)cc1 (centres unmarked) [Compound 90] | < 30 |
| Cc1ccc(C(=O)N(CCCN)C(c2nc3cc4ccccc4cc3c(=O)n2Cc2ccc(Cl)s2)C(C)C)cc1 (centres unmarked) [Compound 5] | < 30 |
| Cc1ccc(C(=O)N(CCN)C(c2nc3c(oc4ccccc43)c(=O)n2Cc2ccccc2)C(C)C)cc1 (centres unmarked) [Compound 25] | < 30 |
| Cc1csc(Cn2c([C@@H](C(C)C)N(CCN)C(=O)c3ccc(C)c(F)c3)nc3c(oc4ccc(F)cc43)c2=O)c1 [Compound 176] | < 30 |
| CC(C)[C@H](c1nc2c(oc3ccc(F)cc32)c(=O)n1Cc1ccsc1)N(CCN)C(=O)c1ccc(Br)cc1 [Compound 202] | < 30 |
| Cc1ccc(C(=O)N(CCN)[C@@H](c2nc3c(oc4ccc(F)cc43)c(=O)n2Cc2ccc(Cl)o2)C2CC2)cc1 [Compound 224] | < 30 |
| CC(C)C(c1nc2c(sc3ccccc32)c(=O)n1Cc1ccc(Cl)s1)N(CCCN)C(=O)c1ccc(Cl)cc1 (centres unmarked) [Compound 143] | < 30 |
| CC(C)C(c1nc2c(oc3ccc(F)cc32)c(=O)n1Cc1ccc(Cl)o1)N(CCN)C(=O)c1ccc(C(F)(F)F)cc1 (centres unmarked) [Compound 171] | < 30 |
| Cc1ccc(C(=O)N(CCN)C(c2nc3c(oc4ccc(Br)cc43)c(=O)n2Cc2ccccc2)C(C)C)cn1 (centres unmarked) [Compound 59] | < 30 |
| Cc1ccc(C(=O)N(CCCN)[C@@H](c2nc3c(oc4ccc(F)cc43)c(=O)n2Cc2cc(C)cs2)C(C)C)cc1 [Compound 211] | < 30 |
| Cc1ccc(C(=O)N(CCCN)C(c2nc3c(oc4cc(F)ccc43)c(=O)n2Cc2ccccc2)C(C)C)cc1 (centres unmarked) [Compound 106] | < 30 |
| Cc1ccc(C(=O)N(CCCN)C(c2nc3c(C#N)c4ccccc4cc3c(=O)n2Cc2ccc(Cl)s2)C(C)C)cc1 (centres unmarked) [Compound 8] | < 30 |
